Measured values as given in patent US8642028B2, “Recombinant adenoviruses encoding the specific iodine transporter (NIS)” (Aventis Pharma S.A., priority 1999, dated 2014).

Assays:
NIS [1] = molecular target: T1, NIS (Rattus norvegicus, UniProt Q63008); assay: Inhibition by perchlorate of iodine transport by NIS in FRTL-5 cells; type: cell-based
T1 construct: expressed in transfected cells; host or cells: SiHa human epithelial tumor cells (ATCC HTB-35) infected with Ad-NIS at a multiplicity of infection of 10
T1 sequence (Q63008 1-618): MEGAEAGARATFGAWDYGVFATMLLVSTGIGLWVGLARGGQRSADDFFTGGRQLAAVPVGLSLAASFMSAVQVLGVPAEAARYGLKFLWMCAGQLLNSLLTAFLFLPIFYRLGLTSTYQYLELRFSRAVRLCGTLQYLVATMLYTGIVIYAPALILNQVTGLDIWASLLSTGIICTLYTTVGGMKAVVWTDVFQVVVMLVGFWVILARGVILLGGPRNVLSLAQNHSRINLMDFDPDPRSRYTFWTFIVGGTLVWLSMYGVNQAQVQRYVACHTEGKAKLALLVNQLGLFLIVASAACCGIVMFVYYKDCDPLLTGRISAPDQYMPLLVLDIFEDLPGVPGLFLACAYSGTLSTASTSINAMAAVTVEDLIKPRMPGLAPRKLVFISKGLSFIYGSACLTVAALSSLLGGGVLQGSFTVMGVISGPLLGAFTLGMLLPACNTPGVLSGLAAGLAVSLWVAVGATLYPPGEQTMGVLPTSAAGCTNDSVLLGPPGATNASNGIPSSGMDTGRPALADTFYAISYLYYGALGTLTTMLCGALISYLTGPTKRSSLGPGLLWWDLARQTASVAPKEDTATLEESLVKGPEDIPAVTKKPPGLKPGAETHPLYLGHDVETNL
Protocol: (§1) The cells are infected with the Ad-NIS vector at a multiplicity of infection of 10. The capacity of the cells to capture iodine is tested 28 to 29 h after infection according to the Weiss et al. method [Endocrinology (1984) 114: 1090-1098]. The infected cells are washed with HBSS buffer and placed in contact for the time indicated in FIG. 3 with 0.5 ml of HBSS buffer containing 0.1 μCi of iodine-125. At the end of the contact time, the cells are washed once with cold HBSS buffer and then incubated for 20 min with cold ethanol. The quantity of iodine-125 captured by the cells is determined by assaying the radioactivity of the ethanol, with a gamma counter.
(§2) The specific inhibition of iodine transport by NIS was tested in the presence of perchlorate. NaCIO4 was added to the HBSS buffer containing iodine-125 so as to obtain final concentrations of 30, 300 and 3000 μM. The contact time between the cells and the iodine-125 is 15 minutes. The results are expressed as number of counts for the same number of cells.

NIS [2] = molecular target: T1, NIS; assay: Inhibition by perchlorate of iodine transport by NIS in SiHa cells infected with Ad-NIS; type: cell-based
Protocol: as §1, §2

In the case of `[O-][Cl+3]([O-])([O-])O` [NaCIO4], the inhibition at 30 µM (NIS [1]; FRTL-5, FRTL-5 cells, 30 μM NaCIO4, 15 min contact with iodine-125, read-out: inhibition of the fixing of iodine) is reported as greater than 90%, the “inhibition of the fixing of iodine” value (NIS [1]; FRTL-5 cells, high NaCIO4 concentrations, 15 min contact with iodine-125) is reported as 95% and the “inhibitor concentration required for the same level of inhibition, SiHa cells relative to FRTL-5 cells” value (NIS [2]; SiHa cells infected with Ad-NIS versus FRTL-5 cells) is reported as 10 times. The inhibition at 30 µM (NIS [2]; SiHa cells infected with Ad-NIS, 30 μM NaCIO4, 15 min contact, read-out: inhibition of the fixing of iodine) was 40%, the inhibition at 300 µM (NIS [2]; SiHa cells infected with Ad-NIS, 300 μM NaCIO4, 15 min contact, read-out: inhibition of the fixing of iodine) was 92% and the inhibition at 3000 µM (NIS [2]; SiHa cells infected with Ad-NIS, 3 mM NaCIO4, 15 min contact, read-out: inhibition of the fixing of iodine) was 98%.
